# Reference: patent US12102646B2, “Compositions for the treatment of fibrosis and inflammation” (Viking Therapeutics, Inc., priority 2018, dated 2024)
# Assays:
# Type in all cases: in vivo
# [1] = tested on: pro-fibrotic and pro-inflammatory genes (Col1a1, Col3a1, ACTA2, LGALS1, ENPP2, ANXA2); experiment: RNAseq liver gene expression in diet-induced NASH mouse model (Example 6); parameters: concentration or dose not given beside the values
# Description: (§1) Compound 2 was evaluated in a diet-induced NASH mouse model (See, e.g., Hansen, H. et al., Drug Discovery Today 22(17):1701-1718 (2017) which is hereby incorporated by reference with respect to its disclosure of diet-induced, genetic, chemical, and other NASH mouse models). […] Animals were biopsied pre-study, and only animals with NASH and fibrosis were selected for study. Selected animals were acclimatized and randomized, with experimental groups of 11-12 animals per cohort receiving oral dosing of compound 2 according to the following schedules: Daily dosing for 8 weeks; or daily dosing for week 0-1 followed by weekly dosing for weeks 2-8. At week 8, animals were sacrificed and tissues analyzed. Plasma enzymes (P-ALT (alanine aminotransferase) and P-AST (aspartate aminotransferase)), total plasma triglycerides, and total plasma cholesterol were measured, and terminal necropsy of each liver was carried out, assaying total liver biochemistry including total liver triglycerides, and total liver cholesterol, as well as histological evaluation of NAFLD activity score (done pre- and post-treatment), fibrosis stage (also done pre- and post-treatment), steatosis, Col1a1 level, and galactin-3 level. Tissue samples were preserved for characterization using RNAseq; RNAseq was used to determine expression levels for genes showing differential expression in compound 2-treated vs. vehicle treated animals and/or genes known to be implicated in fibrosis. Additionally, expression levels for genes known to be implicated in inflammation, such as ANXA2, were determined in compound 2-treated vs. vehicle treated animals.
# [2] = tested on: diet-induced NASH mouse model; experiment: diet-induced NASH mouse model, 8 weeks dosing, liver/plasma biochemistry and histology (Example 6); conditions: for total liver galectin-3: compared to vehicle, 8 weeks dosing, FIG. 9
# Description: as §1
# DIO-NASH mice = experiment: DIO-NASH mice, 8 weeks oral once-daily treatment, liver fibrosis read-outs (Example 1); conditions: for proportion of animals with reduction in fibrosis score post-treatment: compared with mock treated animals; for liver Picro-Sirius Red (PSR) staining (collagen 1 and 3): terminal liver sections, morphometry, Compound 1 vs mock, Compound 2 vs control- or mock-treated
# Description: DIO-NASH mice were acclimatized for 3 weeks, with pre-treatment liver biopsy samples collected prior to acclimatization. Mice were randomly assigned to one of five dosing groups, with 12 mice per group. Assigned dosages were: Compound 2 (low): 3 mg/kg; Compound 2 (high): 10 mg/kg; Compound 1: 10 mg/kg; and Elafibranor (30 mg/kg). One group was mock treated with vehicle only as a control. Dosage forms were administered orally once per day. After 8 weeks, animals were sacrificed and liver samples were taken. Liver samples were assayed for total liver hydroxyproline, and subjected to immunohistochemical observation for fibrosis stage as well as the extent of ColaI (Collagen Type Ia) staining. […] Since hydroxyproline is a significant component of collagen, and collagen is the most significant source of hydroxyproline in animal tissues, levels of hydroxyproline provide a reliable proxy for the presence of collagen in a sample.
# Terminal liver biopsy samples were also subjected to histochemical staining and immunohistochemical staining. Representative images of liver stained with Picro-Sirius Red (to visualize collagen I and III deposition, red stain) at the end of the treatment period following 8 weeks of treatment with vehicle, low dose Compound 2, high dose Compound 2, Compound 1, or elafibranor are shown in FIG. 2. […] Representative images of liver stained with anti-type I collagen (col1a1) (Southern Biotech, Cat. 131001) at the end of the treatment period following 8 weeks of treatment with vehicle, low dose Compound 2, high dose Compound 2, Compound 1, or elafibranor are shown in FIG. 3. The extent of Col1A1 content was calculated as the total liver Col1A1 staining in terminal liver biopsy samples.
# Fibrosis scores were also calculated based on observation of terminal liver biopsy samples.
# [3] = tested on: Agl-/- mice that manifest GSD-3-like hepatic symptoms; experiment: GSD-3-like Agl-/- mice (Example 4); conditions: liver samples; relative to levels prior to administration; 6-10 weeks
# Description: (§2) Glucose-6-phosphatase-α deficient mice that manifest GSD-3-like hepatic symptoms, including hypercholesterolemia and hyperlipidemia (Agl−/−, see e.g. Liu, K. M. et al., Mol. Genet. Metabol. 111(4):467-76 (2014)) are treated with test articles comprising any one of Compounds 1-4, or any other compound disclosed herein, administered to each subject as appropriate for its formulation, daily or as appropriate, for 6-10 weeks. Liver biopsies are taken prior to the first administration of the test articles and again after sacrifice following the last administration of the test articles. Biopsy samples are analyzed as described in Example I. Liver samples from animals treated with the compounds disclosed herein, especially those animals treated with Compound 2, show reduced levels of hydroxyproline, decreased Collagen I staining, and decreased fibrosis score relative to the levels shown prior to the administration of the test articles. Mock treated animals show little or no reduction in fibrosis, hydroxyproline content, or Collagen I content.
# [4] = tested on: Sprague-Dawley Rats or C57BL mice with hypertrophic skin lesions; experiment: hypertrophic skin lesions in rats or mice (Example 3); conditions: injection site skin samples; relative to levels prior to administration; 6-10 weeks
# Text: Hypertrophic skin lesions are induced in Sprague-Dawley Rats by subcutaneous injection of capsaicin as described in Wallengren, J. et al., Skin Pharm. Appl. Skin Physiol. 15(3):154-165(2002), which is hereby incorporated by reference with respect to its description of the induction of hypertrophic skin lesions in rats; or in C57BL or other appropriate strain mice by subcutaneous administration of CCl4 and/or bleomycin, as described in Alonso-Merino et al., Proc. Nat. Acad. Sci. 113(24):E3451-60 (2016), which is incorporated herein for its disclosure of the induction of fibrotic skin lesions in mice. After the establishment of hypertrophic skin lesions in the capsaicin, CCl4 and/or bleomycin treated animals, test articles comprising any one of Compounds 1-4, or any other compound disclosed herein, are administered to each subject animal as appropriate for its formulation, daily or as appropriate, for 6-10 weeks. Skin biopsies from the injection site are taken prior to the first administration of the test articles and again after sacrifice following the last administration of the test articles. Biopsy samples are analyzed as described in Example I, with the addition of immunohistochemical staining for type III collagen. Injection site skin samples from animals treated with the compounds disclosed herein, especially those animals treated with Compound 2, show reduced levels of hydroxyproline, decreased Collagen III staining, and decreased fibrosis score relative to the levels shown prior to the administration of the test articles. Mock treated animals show little or no reduction in fibrosis, hydroxyproline content, or Collagen III content.
# [5] = tested on: Phosphorylase kinase deficient mice (PhKc-/-); experiment: GSD-8/9-like PhKc-/- mice (Example 5); conditions: liver samples; relative to levels prior to administration; 6-10 weeks
# Description: as §2, with “Phosphorylase kinase” for “Glucose-6-phosphatase-α”, “GSD-8/9-like” for “GSD-3-like”, “(PhKc−/−, see, e.g., Varsanyi,” for “(Agl−/−, see e.g. Liu, K.”, “Biochem.” for “Mol.”, “18(3-4):247-61 (1980)),” for “Metabol. 111(4):467-76 (2014))”
# [6] = tested on: Dunkin-Hartley guinea pigs with pulmonary fibrosis; experiment: bleomycin-induced pulmonary fibrosis in guinea pigs (Example 2); conditions: lungs; relative to levels prior to administration; 6-10 weeks
# Description: Pulmonary fibrosis is induced in healthy male Dunkin-Hartley guinea pigs by administering bleomycin intratracheally. Control subjects are developed by intratracheal administration of saline solution. After the establishment of pulmonary fibrosis in the bleomycin treated animals, test articles comprising any one of Compounds 1-4, or any other compound disclosed herein, are administered to each subject as appropriate for its formulation, daily or as appropriate, for 6-10 weeks. Unilateral lung biopsies are taken prior to the first administration of the test articles and again after sacrifice following the last administration of the test articles. Biopsy samples are analyzed as described in Example I, with the addition of immunohistochemical staining for type III collagen. Lungs from animals treated with the compounds disclosed herein, especially those animals treated with Compound 2, show reduced levels of hydroxyproline, decreased Collagen III staining, and decreased fibrosis score relative to the levels shown prior to the administration of the test articles. Mock treated animals show little or no reduction in fibrosis, hydroxyproline content, or Collagen III content.
# [7] = tested on: nude mice with palmar fascia fibrosis; experiment: palmar fascia fibrosis in nude mice (second Example 2); conditions: relative to levels prior to administration, 6-10 weeks
# Text: Palmar fascia fibrosis is induced in nude mice by introducing fibroblasts from fibrotic cords of Dupuytren's disease patients as described in Stish, L. et al., BMC Musculoskelet. Disord. 16: 138-148 (2015) which is hereby incorporated by reference with respect to its description of the establishment of an animal model system for the study of palmar fascia fibrosis. After the establishment of palmar fascia fibrosis in the fibroblast treated animals, test articles comprising any one of Compounds 1-4, or any other compound disclosed herein, are administered to each subject as appropriate for its formulation, daily or as appropriate, for 6-10 weeks. Unilateral forepaw biopsies are taken prior to the first administration of the test articles and again after sacrifice following the last administration of the test articles. Biopsy samples are analyzed as described in Example I, with the addition of immunohistochemical staining for type III collagen. Palmar fascia from animals treated with the compounds disclosed herein, especially those animals treated with Compound 2, show reduced levels of hydroxyproline, decreased Collagen III staining, and decreased fibrosis score relative to the levels shown prior to the administration of the test articles. Mock treated animals show little or no reduction in fibrosis, hydroxyproline content, or Collagen III content.
# [8] = post-treatment liver, 8 weeks, FIG. 8
# [9] = relative to pre-treatment samples, 8 weeks, FIG. 7
# [10] = treatment groups relative to untreated controls, week 8, oral
structure (smiles),measurement,setting,value
Cc1cc(OCP(=O)(OCOC(=O)C(C)(C)C)OCOC(=O)C(C)(C)C)cc(C)c1Cc1ccc(O)c(Cc2ccccc2)c1 [Compound 1],ACTA2 Change versus Vehicle Control,"[1]; 8-week dosing, fibrosis marker",−30.5%
same,ENPP2 Change versus Vehicle Control,"[1]; 8-week dosing, fibrosis marker",−44.1%
same,LGALS1 Change versus Vehicle Control,"[1]; 8-week dosing, fibrosis marker",−35.1%
same,total liver galectin-3,[2],reduction
same,proportion of animals with reduction in fibrosis score post-treatment,DIO-NASH mice; 8 weeks,higher
same,liver Picro-Sirius Red (PSR) staining (collagen 1 and 3),DIO-NASH mice; 8 weeks oral once per day,lower
Cc1cc(OCP2(=O)OCC[C@@H](c3cccc(Cl)c3)O2)cc(C)c1Cc1ccc(O)c(C(C)C)c1 (stereo partly shown) [Compound 2],Collagen I staining,[3],decreased
same,fibrosis score,[3],decreased
same,levels of hydroxyproline,[3],reduced
same,Collagen III staining,[4],decreased
same,fibrosis score,[4],decreased
same,levels of hydroxyproline,[4],reduced
same,ACTA2 Change versus Vehicle Control,"[1]; 8-week dosing, fibrosis marker",−37.0%
same,Col1a1 Change versus Vehicle Control,"[1]; 8-week dosing, fibrosis marker",−36.3%
same,Col3a1 Change versus Vehicle Control,"[1]; 8-week dosing, fibrosis marker",−27.1%
same,ENPP2 Change versus Vehicle Control,"[1]; 8-week dosing, fibrosis marker",−56.3%
same,LGALS1 Change versus Vehicle Control,"[1]; 8-week dosing, fibrosis marker",−64.7%
same,ANXA2 Change versus Vehicle Control,"[1]; 8-week dosing, inflammatory marker",−40.3%
same,expression of pro-inflammatory gene ANXA2 reduced by,"[1]; post-treatment liver, 8 weeks",40.3%
same,expression of ACTA2 (αSMA) reduced by,[1]; [8],37%
same,expression of Col1a1 reduced by,[1]; [8],36.3%
same,expression of Col3a1 reduced by,[1]; [8],27.1%
same,expression of LGALS1 (Galectin 1) reduced by,[1]; [8],64.7%
same,toxicity,[2]; 8 weeks oral dosing,No significant toxicity
same,total liver galectin-3,[2],reduction
same,reduction in fibrosis (fibrosis score),[2]; [9],50.2%
same,reduction in hydroxyproline,[2]; [9],46.3%
same,reduction in type 1 collagen deposition,[2]; [9],60.2%
same,liver cholesterol,[2]; [10],Significant reductions
same,liver triglycerides,[2]; [10],Significant reductions
same,NAS scores,"[2]; week 8, oral",significant improvements
same,"total lipid content in the liver, reduction","[2]; week 8, oral, FIG. 6",approximately 80%
same,Collagen I staining,[5],decreased
same,fibrosis score,[5],decreased
same,levels of hydroxyproline,[5],reduced
same,animals showing increases in fibrosis score post-treatment,DIO-NASH mice; 8 weeks,No
same,proportion of animals with reduction in fibrosis score post-treatment,DIO-NASH mice; 8 weeks,higher
same,total liver Col1A1 content,"DIO-NASH mice; terminal liver biopsy, anti-type I collagen staining, vs control-treated or mock-treated animals, 8 weeks",lower
same,liver Picro-Sirius Red (PSR) staining (collagen 1 and 3),DIO-NASH mice; 8 weeks oral once per day,lower
same,total liver hydroxyproline levels,"DIO-NASH mice; vs control-treated (elafibranor) or mock-treated animals, 8 weeks oral once per day, Compound 2 3 and 10 mg/kg",lower
same,Collagen III staining,[6],decreased
same,fibrosis score,[6],decreased
same,levels of hydroxyproline,[6],reduced
same,Collagen III staining,[7],decreased
same,fibrosis score,[7],decreased
same,levels of hydroxyproline,[7],reduced
